Test results from patent US5428139A, “Bicyclopolyazamacrocyclophosphonic acid complexes for use as radiopharmaceuticals” (The Dow Chemical Company, priority 1991, dated 1995).

Legend:
[1] = Biodistribution: percent of injected dose in tissues; format: in vivo, Sprague Dawley rats; settings: for % injected dose in bone: 100 μl complex i.v. via tail vein, bone estimated as femur x 25; for % injected dose in blood: blood assumed 7% of body weight; for % injected dose in muscle: muscle assumed 43% of body weight
Protocol: Sprague Dawley rats were allowed to acclimate for five days then injected with 100 μl of the complex solution via a tail vein. The rats weighed between 150 and 200 g at the time of injection. After 30 min. the rats were killed by cervical dislocation and dissected. The amount of radioactivity in each tissue was determined by counting in a NaI scintillation counter coupled to a multichannel analyzer. The counts were compared to the counts in 100 μl standards in order to determine the percentage of the dose in each tissue or organ.
The percent dose in blood was estimated assuming blood to be 7% of the body weight. The percent dose in bone was estimated by multiplying the percent dose in the femur by 25. The percent dose in muscle was estimated assuming muscle to be 43% of the body weight.

[2] = Percent metal as a complex (Sephadex column, ion exchange method); format: physicochemical; settings: 1:1 ligand/metal, eluted with 4:1 saline (0.85% NaCl/NH4 OH)
Protocol: A stock ^153 SmCl3 solution was prepared by adding 2 μL of 3×10^-4 M ^153 SmCl3 in 0.1N HCl to 2 mL of a 3×10^-4 M SmCl3 carrier solution. Appropriate ligand solutions were then prepared in deionized water. The 1:1 ligand/metal complexes were then prepared by combining the ligands (dissolved in 100-500 μL of deionized water) with 2 mL of the stock ^153 SmCl3 solution, followed by through mixing to give an acidic solution (pH=2). The pH of the solution was then raised to 7.0 using 0.1N NaOH. The percent metal as a complex was then determined by passing a sample of the complex solution through a Sephadex™ G-50 column, eluting with 4:1 saline ([…]) and collecting 2×3 mL fractions. The amount of radioactivity in the combined elutions was then compared with that left on the resin (non-complexed metal is retained on the resin). […]
A solution of the ligand of Example 1 was prepared by dissolving 3.8 mg of ligand/0.517 mL of deionized water (pH=2). […] After thorough mixing, the percent metal as a complex was determined by passing a sample of the complex solution through a Sephadex™ column, eluting with 4:1 saline (0.85% NaCl/NH4 OH), and collecting 2×3 mL fractions. The amount of radioactivity in the combined elutions was then compared with that left on the resin. […] By this method complexation was determined to be 98%. […] The pH stability was then determined using the General Procedure above.

[3] = patients with metastatic bone lesions; cited from earlier work
[4] = Sprague Dawley rats, 30 min, average
[5] = Sprague Dawley rats, tail vein, 30 min, average
[6] = rats, 30 min, % dose/G printed for bone to blood ratio

With O=P(O)(O)CN1CCN(CP(=O)(O)O)Cc2cccc(n2)CN(CP(=O)(O)O)CC1.[90Y] [^90 Y-PCTMP, complex of ^90 Y-3,6,9,15-tetraazabicyclo[9.3.1]pentadeca-1(15),11,13-triene-3,6,9-trimethylenephosphonic acid] the “bone to blood ratio” value ([1]; % dose/G, rats, 30 min) was 140, the “% injected dose in bone” value [1, 4] was 29% and the “% injected dose in kidney” value [1, 5] was 0.36%. For the same molecule, the “% injected dose in liver” value [1, 5] was 0.21%, the “% injected dose in blood” value [1, 5] was 0.18% and the “% injected dose in muscle” value [1, 5] was 0.42%. For the same molecule, the “bone to liver ratio” value [1, 6] was 76 and the “bone to muscle ratio” value [1, 6] was 400.
For O=P(O)(O)CN1CCN(CP(=O)(O)O)Cc2cccc(n2)CN(CP(=O)(O)O)CC1.[153Sm] [^153 Sm-PCTMP, complex of ^153 Sm-3,6,9,15-tetraazabicyclo[9.3.1]pentadeca-1(15),11,13-triene-3,6,9-trimethylenephosphonic acid], the “percent metal as a complex (complexation)” value [2] was 98%, the bone localization ([1]; 5:1 ligand to metal ratio) was “about 60%” and the “% injected dose in bone” value [1, 4] was 60%. The “% injected dose in kidney” value [1, 5] was 0.38%, the “% injected dose in liver” value [1, 5] was 2.80% and the “% injected dose in spleen” value [1, 5] was 0.16%. For the same molecule, the “% injected dose in blood” value [1, 5] was 0.29% and the “% injected dose in muscle” value [1, 5] was 0.40%.
In the case of O=P(O)(O)CN1CCN(CP(=O)(O)O)Cc2cccc(n2)CN(CP(=O)(O)O)CC1.[166Ho] [^166 Ho-PCTMP, complex of ^166 Ho-3,6,9,15-tetraazabicyclo[9.3.1]pentadeca-1(15),11,13-triene-3,6,9-trimethylenephosphonic acid], the “% injected dose in bone” value [1, 4] is reported as 43%, the “% injected dose in kidney” value [1, 5] is reported as 0.33% and the “% injected dose in liver” value [1, 5] is reported as 3.55%. The “% injected dose in blood” value [1, 5] was 0.12% and the “% injected dose in muscle” value [1, 5] was 0.34%.
For Strontium-89, the blood levels [3] is listed as “high” and the “lesion to normal bone ratios” value [3] is listed as “low”.
